target: High affinity nerve growth factor receptor (Homo sapiens, UniProt P04629); assay: Inhibitory Activity Assay: TrkA, TrkB and TrkC:A testing platform for TrkA, TrkB and TrkC kinase activity was established based on Homogeneous Time-Resolved Fluorescence (HTRF) assay, and the activities of the compounds were tested using the platform. The compounds were subjected to three-fold gradient dilution with 100% DMSO with a starting concentration of 1 mM (11 concentrations in total). 4 μL of diluted sample for each concentration was added to 96 μL of reaction buffer (50 mM HEPES, pH7.4, 5 mM MgCl2, 1 mM NaVO3, 0.001% Tween-20, 0.01% BSA and 1 mM DTT) and mixed homogeneously to be used as a 4* compound. The reaction buffer was used to formulate 2* TrkA, TrkB and TrkC kinases (purchased from Carna Biosciences 08-186, 08-187, 08-197, and the final concentrations thereof were 0.5 nM, 0.1 nM, and 1 nM, respectively) and 4* substrate mixture (ATP+TK peptide) (wherein the final concentrations of ATP were 40 μM, 50 μM, and 20 μM, respectively; TK peptide, HTRF® KinEASE™-TK, was purchased from Cisbio, and the final concentration thereof was 100 nM) for use. 2.5 μL of the 4* compound was added to a 384-well plate (OptiPlate-384, purchased from PerkinElmer), and then 5 μL of the 2* TrkA, TrkB and TrkC kinases were added, and mixed homogeneously by centrifugation. Then 2.5 μL of the 4* substrate mixture was added to initiate the reaction (the total reaction volume is 10 μL). The 384-well plate was placed in an incubator and incubated for 60 min at 23° C. Then the reaction was terminated by adding 5 μL of Eu3+ cryptate-labeled anti-phosphotyrosine antibody (HTRF® KinEASE™-TK, purchased from Cisbio), and 5 μL of Streptavidin-XL-665 (HTRF® KinEASE™-TK, purchased from Cisbio). After incubated for 1 hr in the incubator, the fluorescence values were read on Envision (purchased from PerkinElmer).
Sequence (P04629 whole entry): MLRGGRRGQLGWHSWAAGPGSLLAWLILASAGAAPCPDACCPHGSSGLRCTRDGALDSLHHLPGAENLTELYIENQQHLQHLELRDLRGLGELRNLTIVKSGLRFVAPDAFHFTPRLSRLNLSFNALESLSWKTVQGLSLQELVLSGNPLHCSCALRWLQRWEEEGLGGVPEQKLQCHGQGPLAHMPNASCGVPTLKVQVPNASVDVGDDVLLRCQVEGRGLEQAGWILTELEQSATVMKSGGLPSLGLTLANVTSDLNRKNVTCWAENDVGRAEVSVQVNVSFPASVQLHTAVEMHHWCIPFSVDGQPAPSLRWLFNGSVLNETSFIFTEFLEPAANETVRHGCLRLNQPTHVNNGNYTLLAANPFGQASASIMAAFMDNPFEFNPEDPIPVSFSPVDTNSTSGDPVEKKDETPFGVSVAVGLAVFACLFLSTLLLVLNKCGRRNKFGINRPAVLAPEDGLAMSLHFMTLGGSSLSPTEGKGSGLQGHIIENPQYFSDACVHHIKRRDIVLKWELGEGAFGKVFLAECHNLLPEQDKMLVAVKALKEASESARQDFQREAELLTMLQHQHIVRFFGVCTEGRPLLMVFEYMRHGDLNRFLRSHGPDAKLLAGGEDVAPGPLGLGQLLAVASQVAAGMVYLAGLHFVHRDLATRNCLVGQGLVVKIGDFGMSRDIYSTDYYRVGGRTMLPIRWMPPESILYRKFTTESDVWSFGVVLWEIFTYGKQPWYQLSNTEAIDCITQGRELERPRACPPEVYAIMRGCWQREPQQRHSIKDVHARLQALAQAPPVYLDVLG

SMILES | IC50 [nM]
CN(C)C(=O)c1c(N)nn2ccc(N3CCC[C@@H]3c3cc(F)ccc3F)nc12 | < 25
CC(C)(C)ONC(=O)c1c(N)nn2ccc(N3CCC[C@@H]3c3cc(F)ccc3F)nc12 | < 1
CC(C)(CO)ONC(=O)c1c(N)nn2ccc(N3CCC[C@@H]3c3cc(F)ccc3F)nc12 | < 1
CCOC(=O)c1c(N)nn2ccc(N3C[C@H](O)CC3c3cc(F)ccc3F)nc12 (stereo partly specified) | < 25
Nc1nn2ccc(N3CCC[C@@H]3c3cc(F)ccc3F)nc2c1C(=O)NC1CCC(O)CC1 (stereo partly specified) | < 1
Nc1nn2ccc(N3CCC[C@@H]3c3cc(F)ccc3F)nc2c1C(=O)NOCCO | < 1

Now from value to compound:

IC50 [nM] | SMILES
< 1 | N#Cc1c(N)nn2ccc(N3C[C@@H](F)C[C@@H]3c3cc(F)ccc3F)nc12
< 500 | CCOC(=O)c1c(N)nn2ccc(N3C[C@@H](O)CC3c3cc(F)ccc3F)nc12 (stereo partly specified)
< 1 | CC1(C)OCC(CONC(=O)c2c(N)nn3ccc(N4CCC[C@@H]4c4cc(F)ccc4F)nc23)O1 (stereo partly specified)
< 25 | Nc1nn2ccc(N3CCC[C@@H]3c3cc(F)ccc3F)nc2c1Br
< 25 | NC(=O)c1c(N)nn2ccc(N3C[C@@H](O)C[C@@H]3c3cc(F)ccc3F)nc12
